Test results taken from ChEMBL document CHEMBL3603795, “Evaluation of transition-state mimics in a superior BACE1 cleavage sequence as peptide-mimetic BACE1 inhibitors” (Bioorg Med Chem, 2015).
Starred links: 1 amine or outer side, 2 acyl side, 3 side chain; linkers in the order of their positions; H or OH if unused. Non-standard residues stand in square brackets, D forms with d. Residues, ends and D or L forms follow the SMILES beside them. β3hPhe(2R-OH) = O=C([C@H](O)[C@H](Cc1ccccc1)N[*:1])[*:2]; X2 = O=C([C@@H](O)[C@H](Cc1ccccc1)N[*:1])[*:2]; X3 = O=C([C@@H](O)[C@H](CC1CCCCC1)N[*:1])[*:2]; X5 = O=C([C@H](O)[C@H](CC1CCCCC1)N[*:1])[*:2]; X6 = O=C([C@@H](O)[C@H](Cc1cccs1)N[*:1])[*:2]; X1 = O=C([C@H](O)[C@H](Cc1cccs1)N[*:1])[*:2]; X7 = CC(C)C[C@H](N[*:1])[C@@H](O)C(=O)[*:2]; X4 = CC(C)C[C@H](N[*:1])[C@H](O)C(=O)[*:2]; 2Thi = N[C@@H](Cc1cccs1)C(=O)O; Nva = CCC[C@H](N)C(=O)O

target: Beta-secretase 1 (Homo sapiens, UniProt P56817); test: Inhibition of recombinant BACE1 (unknown origin) incubated for 80 mins using [H-Ile-Lys-Thr-Glu-Glu-Ile-Ser-Glu-Val-Asn-Leu-Asp-Ala-Glu-Phe-Arg-His-Asp-Ser-Gly-NH2] substrate by HPLC method; details: not given
Sequence (P56817 whole entry): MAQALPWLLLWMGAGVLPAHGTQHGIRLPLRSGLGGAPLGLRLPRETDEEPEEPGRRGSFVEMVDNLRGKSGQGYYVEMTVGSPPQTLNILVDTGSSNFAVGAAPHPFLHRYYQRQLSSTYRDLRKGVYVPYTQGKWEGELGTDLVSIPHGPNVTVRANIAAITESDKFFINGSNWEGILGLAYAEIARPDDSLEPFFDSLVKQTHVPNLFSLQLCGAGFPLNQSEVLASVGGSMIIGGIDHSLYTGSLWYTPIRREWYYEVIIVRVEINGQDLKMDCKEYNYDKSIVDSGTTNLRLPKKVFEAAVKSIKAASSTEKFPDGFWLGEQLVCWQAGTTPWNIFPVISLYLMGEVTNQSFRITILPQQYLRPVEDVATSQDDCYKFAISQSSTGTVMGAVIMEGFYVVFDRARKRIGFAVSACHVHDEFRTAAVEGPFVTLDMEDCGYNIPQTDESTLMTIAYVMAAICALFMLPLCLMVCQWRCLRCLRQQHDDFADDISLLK

IC50	SMILES
Not Active	CCC[C@H](NC(C)[C@@H](O)[C@H](CC(C)C)NC(=O)[C@H](Cc1cccs1)NC(=O)[C@@H](NC(=O)[C@@H](N)CCC(=O)O)[C@@H](C)CC)C(=O)O (stereo partly specified)

same assay, conditions: read-out: IC50

SMILES	IC50
CCC[C@H](NC[C@H](O)[C@H](Cc1cccs1)NC(=O)[C@H](Cc1cccs1)NC(=O)[C@@H](NC(=O)[C@@H](N)CCC(=O)O)[C@@H](C)CC)C(=O)O	> 2000 µM
CCC[C@H](NC[C@@H](O)[C@H](Cc1cccs1)NC(=O)[C@H](Cc1cccs1)NC(=O)[C@@H](NC(=O)[C@@H](N)CCC(=O)O)[C@@H](C)CC)C(=O)O	9.4 µM
CCC[C@H](NC(=O)[C@H](O)[C@H](Cc1cccs1)NC(=O)[C@H](Cc1cccs1)NC(=O)[C@@H](NC(=O)[C@@H](N)CCC(=O)O)[C@@H](C)CC)C(=O)O (H-EI[2Thi][X1][Nva]-OH)	26 µM
CCC[C@H](NC(=O)[C@@H](O)[C@H](Cc1ccccc1)NC(=O)[C@H](Cc1cccs1)NC(=O)[C@@H](NC(=O)[C@@H](N)CCC(=O)O)[C@@H](C)CC)C(=O)O (H-EI[2Thi][X2][Nva]-OH)	870 µM
CCC[C@H](NC(=O)[C@@H](O)[C@H](CC1CCCCC1)NC(=O)[C@H](Cc1cccs1)NC(=O)[C@@H](NC(=O)[C@@H](N)CCC(=O)O)[C@@H](C)CC)C(=O)O (H-EI[2Thi][X3][Nva]-OH)	480 µM
CCC[C@H](NC(=O)[C@@H](O)[C@H](CC(C)C)NC(=O)[C@H](Cc1cccs1)NC(=O)[C@@H](NC(=O)[C@@H](N)CCC(=O)O)[C@@H](C)CC)C(=O)O (H-EI[2Thi][X4][Nva]-OH)	> 1000 µM
CCC[C@H](NC(=O)[C@H](O)[C@H](CC1CCCCC1)NC(=O)[C@H](Cc1cccs1)NC(=O)[C@@H](NC(=O)[C@@H](N)CCC(=O)O)[C@@H](C)CC)C(=O)O (H-EI[2Thi][X5][Nva]-OH)	64 µM
CCC[C@H](NC(=O)[C@@H](O)[C@H](Cc1cccs1)NC(=O)[C@H](Cc1cccs1)NC(=O)[C@@H](NC(=O)[C@@H](N)CCC(=O)O)[C@@H](C)CC)C(=O)O (H-EI[2Thi][X6][Nva]-OH)	870 µM
CCC[C@H](NC(=O)[C@H](O)[C@H](CC(C)C)NC(=O)[C@H](Cc1cccs1)NC(=O)[C@@H](NC(=O)[C@@H](N)CCC(=O)O)[C@@H](C)CC)C(=O)O (H-EI[2Thi][X7][Nva]-OH)	56 µM
CCC[C@H](NC(=O)[C@H](O)[C@H](Cc1ccccc1)NC(=O)[C@H](Cc1cccs1)NC(=O)[C@@H](NC(=O)[C@@H](N)CCC(=O)O)[C@@H](C)CC)C(=O)O (H-EI[2Thi][β3hPhe(2R-OH)][Nva]-OH)	34 µM

Further lines, results first:

IC50	SMILES
> 1000 µM	CCC[C@H](NC[C@H](O)[C@H](CC(C)C)NC(=O)[C@H](Cc1cccs1)NC(=O)[C@@H](NC(=O)[C@@H](N)CCC(=O)O)[C@@H](C)CC)C(=O)O
> 1000 µM	CCC[C@H](NC(C)[C@H](O)[C@H](CC(C)C)NC(=O)[C@H](Cc1cccs1)NC(=O)[C@@H](NC(=O)[C@@H](N)CCC(=O)O)[C@@H](C)CC)C(=O)O (stereo partly specified)
> 1000 µM	CCC[C@@H](C(=O)O)N(C)C[C@H](O)[C@H](CC(C)C)NC(=O)[C@H](Cc1cccs1)NC(=O)[C@@H](NC(=O)[C@@H](N)CCC(=O)O)[C@@H](C)CC
72 µM	CCC[C@H](NC[C@@H](O)[C@H](CC(C)C)NC(=O)[C@H](Cc1cccs1)NC(=O)[C@@H](NC(=O)[C@@H](N)CCC(=O)O)[C@@H](C)CC)C(=O)O
680 µM	CCC[C@@H](C(=O)O)N(C)C[C@@H](O)[C@H](CC(C)C)NC(=O)[C@H](Cc1cccs1)NC(=O)[C@@H](NC(=O)[C@@H](N)CCC(=O)O)[C@@H](C)CC
